Experimental data as given in PubChem BioAssay AID256 (DTP/NCI, 2004).
Several values for one entry are separate records, joined by “and”; a condition that tells them apart may be missing. Equal values may be shown once. Inconclusive results and toxic doses are left out.

Test system: CD2F1 mice, L1210 leukemia ip, survival T/C
Assay: NCI In Vivo Anticancer Drug Screen. Data for tumor model L1210 Leukemia (intraperitoneal) in CD2F1 (CDF1) mice
Conditions: higher = longer survival
Procedure, shortened: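 Activity against a transplanted murine tumor was judged by comparing the compound group with a vehicle group. The outcome in the treated animals was divided by that in the controls.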

[1] = endpoint: mean survival time, dose: 50.0 mg/kg/injection, schedule: Q01DX009 (ip), vehicle: saline with Tween-80
[2] = endpoint: mean survival time, dose: 100.0 mg/kg/injection, schedule: Q01DX001 (ip), vehicle: saline
[3] = endpoint: mean survival time, dose: 100.0 mg/kg/injection, schedule: Q04DX003 (ip), vehicle: saline with Tween-80
[4] = endpoint: mean survival time, dose: 200.0 mg/kg/injection, schedule: Q04DX003 (ip), vehicle: saline with Tween-80
[5] = endpoint: mean survival time, dose: 100.0 mg/kg/injection, schedule: Q01DX009 (ip), vehicle: saline
[6] = endpoint: mean survival time, dose: 200.0 mg/kg/injection, schedule: Q01DX009 (ip), vehicle: saline
[7] = endpoint: mean survival time, dose: 400.0 mg/kg/injection, schedule: Q01DX009 (ip), vehicle: saline

In the case of CC1=COC(Cc2ccc(Cl)cc2)C(c2ccccc2)(c2ccccc2)C1=O (centres undefined), the T/C (endpoint: mean survival time, dose: 100.0 mg/kg/injection, schedule: Q01DX001 (ip), vehicle: saline sonified) is reported as 105 % of control, the T/C (endpoint: mean survival time, dose: 100.0 mg/kg/injection, schedule: Q04DX002 (ip), vehicle: saline with Tween-80) is reported as 89 % of control and the T/C (endpoint: mean survival time, dose: 200.0 mg/kg/injection, schedule: Q01DX001 (ip), vehicle: saline sonified) is reported as 94 % of control. The T/C (endpoint: mean survival time, dose: 200.0 mg/kg/injection, schedule: Q04DX002 (ip), vehicle: saline with Tween-80) was 89 % of control, the T/C (endpoint: mean survival time, dose: 400.0 mg/kg/injection, schedule: Q01DX001 (ip), vehicle: saline sonified) was 90 % of control and the T/C (endpoint: mean survival time, dose: 400.0 mg/kg/injection, schedule: Q04DX002 (ip), vehicle: saline with Tween-80) was 89 % of control.
In the case of CCCCC#CC(=O)CCCCC, the T/C [1] is reported as 97 % of control and the T/C (endpoint: mean survival time, dose: 100.0 mg/kg/injection, schedule: Q01DX009 (ip), vehicle: saline with Tween-80) is reported as 102 % of control.
CCCCNCCO was tested, and the T/C [2] was 104 % of control.
In the case of COCCOC, the T/C (endpoint: mean survival time, dose: 200.0 mg/kg/injection, schedule: Q01DX Z (ip), vehicle: carboxymethylcellulose (CMC)) is reported as 103 % of control, the T/C (endpoint: mean survival time, dose: 300.0 mg/kg/injection, schedule: Q01DX Z (ip), vehicle: carboxymethylcellulose (CMC)) is reported as 110 % of control and the T/C (endpoint: mean survival time, dose: 450.0 mg/kg/injection, schedule: Q01DX Z (ip), vehicle: carboxymethylcellulose (CMC)) is reported as 114 % of control. For the same compound, the T/C (endpoint: mean survival time, dose: 675.0 mg/kg/injection, schedule: Q01DX Z (ip), vehicle: carboxymethylcellulose (CMC)) was 102 % of control.
In the case of O=C(O)c1cc2ccc(Cl)cc2c2cc(C(F)(F)F)ccc12, the T/C (endpoint: mean survival time, dose: 18.8 mg/kg/injection, schedule: Q01DX009 (ip), vehicle: saline) is reported as 97 % of control, the T/C (endpoint: mean survival time, dose: 37.5 mg/kg/injection, schedule: Q01DX009 (ip), vehicle: saline) is reported as 111 % of control and the T/C (endpoint: mean survival time, dose: 75.0 mg/kg/injection, schedule: Q04DX003 (ip), vehicle: saline) is reported as 95 % of control.
c1ccc(CCN2CCC(CCc3c[nH]c4ccccc34)CC2)cc1 was tested, and the T/C [1] was 107 % of control, the T/C (endpoint: mean survival time, dose: 50.0 mg/kg/injection, schedule: Q04DX003 (ip), vehicle: saline with Tween-80) was 110 % of control and the T/C [3] was 104 % of control. The T/C [4] was 92 % of control.
With O=c1[nH]c(=O)n([C@H]2CCCO2)cc1F the T/C (endpoint: mean survival time, dose: 25.0 mg/kg/injection, schedule: Q01DX005 (ip), vehicle: other) was 93 % of control, the T/C (endpoint: mean survival time, dose: 25.0 mg/kg/injection, schedule: Q01DX009 (ip), vehicle: saline with Tween-80) was 97 % of control and the T/C (endpoint: mean survival time, dose: 25.0 mg/kg/injection, schedule: Q04DX003 (ip), vehicle: saline) was 90 % of control. The T/C (endpoint: mean survival time, dose: 50.0 mg/kg/injection, schedule: Q01DX005 (ip), vehicle: other) was 93 % of control, the T/C [1] was 101 % of control and the T/C (endpoint: mean survival time, dose: 50.0 mg/kg/injection, schedule: Q04DX003 (ip), vehicle: saline) was 100 % of control. The T/C (endpoint: mean survival time, dose: 100.0 mg/kg/injection, schedule: Q01DX005 (ip), vehicle: other) was 114 % of control, the T/C (endpoint: mean survival time, dose: 100.0 mg/kg/injection, schedule: Q04DX003 (ip), vehicle: saline) was 105 % of control and the T/C (endpoint: mean survival time, dose: 112.5 mg/kg/injection, schedule: Q04DX003 (ip), vehicle: saline with Tween-80) was 106 % of control. For the same compound, the T/C (endpoint: mean survival time, dose: 112.5 mg/kg/injection, schedule: Q04DX003 (iv), vehicle: saline with Tween-80) was 104 % of control, the T/C (endpoint: mean survival time, dose: 225.0 mg/kg/injection, schedule: Q04DX003 (ip), vehicle: saline with Tween-80) was 116 % of control and the T/C (endpoint: mean survival time, dose: 225.0 mg/kg/injection, schedule: Q04DX003 (iv), vehicle: saline with Tween-80) was 113 % of control. For the same compound, the T/C (endpoint: mean survival time, dose: 400.0 mg/kg/injection, schedule: Q01DX005 (ip), vehicle: other) was 95 % of control, the T/C (endpoint: mean survival time, dose: 400.0 mg/kg/injection, schedule: Q01DX009 (ip), vehicle: saline with Tween-80) was 104 % of control and the T/C (endpoint: mean survival time, dose: 400.0 mg/kg/injection, schedule: Q04DX003 (ip), vehicle: saline) was 158 % of control. For the same compound, the T/C (endpoint: mean survival time, dose: 450.0 mg/kg/injection, schedule: Q04DX003 (ip), vehicle: saline with Tween-80) was 153 % of control.
With CCCC1=C(CCC)C(F)(F)C1(F)F the T/C (endpoint: mean survival time, dose: 75.0 mg/kg/injection, schedule: Q01DX001 (ip), vehicle: other) was 98 % of control, the T/C (endpoint: mean survival time, dose: 150.0 mg/kg/injection, schedule: Q01DX001 (ip), vehicle: other) was 96 % of control and the T/C (endpoint: mean survival time, dose: 300.0 mg/kg/injection, schedule: Q01DX001 (ip), vehicle: other) was 108 % of control.
In the case of O=c1ccc2nc3cc(Cl)ccc3sc-2c1, the T/C (endpoint: mean survival time, dose: 100.0 mg/kg/injection, schedule: Q04DX003 (ip), vehicle: Klucel (hydroxypropylcellulose) (HPC)) is reported as 94 % of control, the T/C (endpoint: mean survival time, dose: 200.0 mg/kg/injection, schedule: Q04DX003 (ip), vehicle: Klucel (hydroxypropylcellulose) (HPC)) is reported as 94 % of control and the T/C (endpoint: mean survival time, dose: 400.0 mg/kg/injection, schedule: Q04DX003 (ip), vehicle: Klucel (hydroxypropylcellulose) (HPC)) is reported as 94 % of control.
In the case of NCC(=O)Nc1ccccc1, the T/C [5] is reported as 103 % of control, the T/C [6] is reported as 113 % of control and the T/C [7] is reported as 97 % of control.
With COC(=O)c1cccc(N=NN(C)C)c1 the T/C (endpoint: mean survival time, dose: 23.0 mg/kg/injection, schedule: Q01DX009 (ip), vehicle: Klucel (hydroxypropylcellulose) (HPC)) was 108 % of control, the T/C (endpoint: mean survival time, dose: 39.0 mg/kg/injection, schedule: Q01DX009 (ip), vehicle: Klucel (hydroxypropylcellulose) (HPC)) was 98 % of control and the T/C (endpoint: mean survival time, dose: 65.0 mg/kg/injection, schedule: Q01DX009 (ip), vehicle: Klucel (hydroxypropylcellulose) (HPC)) was 97 % of control. The T/C (endpoint: mean survival time, dose: 108.0 mg/kg/injection, schedule: Q01DX009 (ip), vehicle: Klucel (hydroxypropylcellulose) (HPC)) was 104 % of control.
With CCOC(=O)C1CC(O)CN1 (centres undefined) the T/C (endpoint: mean survival time, dose: 100.0 mg/kg/injection, schedule: Q01DX009 (ip), vehicle: saline sonified) was 98 % of control, the T/C (endpoint: mean survival time, dose: 200.0 mg/kg/injection, schedule: Q01DX009 (ip), vehicle: saline sonified) was 95 % of control and the T/C (endpoint: mean survival time, dose: 400.0 mg/kg/injection, schedule: Q01DX009 (ip), vehicle: saline sonified) was 92 % of control.
In the case of O=C(O)c1cc(C(=O)O)c(C(=O)O)cc1C(=O)O.[NH2-].[NH2-].[NH2-].[NH2-].[Pt+2].[Pt+2], the T/C (endpoint: mean survival time, dose: 0.2 mg/kg/injection, schedule: Q04DX003 (ip), vehicle: water) is reported as 124 % of control and 106 % of control, the T/C (endpoint: mean survival time, dose: 0.39 mg/kg/injection, schedule: Q04DX003 (ip), vehicle: water) is reported as 115 % of control and 119 % of control and the T/C (endpoint: mean survival time, dose: 2.0 mg/kg/injection, schedule: Q04DX003 (ip), vehicle: water) is reported as 98 % of control. The T/C (endpoint: mean survival time, dose: 4.0 mg/kg/injection, schedule: Q04DX003 (ip), vehicle: water) was 97 % of control, the T/C (endpoint: mean survival time, dose: 8.0 mg/kg/injection, schedule: Q04DX003 (ip), vehicle: water) was 106 % of control and the T/C (endpoint: mean survival time, dose: 16.0 mg/kg/injection, schedule: Q04DX003 (ip), vehicle: water) was 110 % of control. For the same compound, the T/C (endpoint: median survival time, dose: 0.12 mg/kg/injection, schedule: Q01DX009 (ip), vehicle: water) was 97 % of control, the T/C (endpoint: median survival time, dose: 0.25 mg/kg/injection, schedule: Q01DX009 (ip), vehicle: water) was 97 % of control and the T/C (endpoint: median survival time, dose: 0.5 mg/kg/injection, schedule: Q01DX009 (ip), vehicle: water) was 97 % of control. For the same compound, the T/C (endpoint: median survival time, dose: 1.0 mg/kg/injection, schedule: Q01DX009 (ip), vehicle: water) was 92 % of control and 100 % of control and 112 % of control, the T/C (endpoint: median survival time, dose: 2.0 mg/kg/injection, schedule: Q01DX009 (ip), vehicle: water) was 100 % of control and 101 % of control and 109 % of control and the T/C (endpoint: median survival time, dose: 4.0 mg/kg/injection, schedule: Q01DX009 (ip), vehicle: water) was 124 % of control and 105 % of control. For the same compound, the T/C (endpoint: median survival time, dose: 8.0 mg/kg/injection, schedule: Q01DX009 (ip), vehicle: water) was 124 % of control and 111 % of control (2×), the T/C (endpoint: median survival time, dose: 16.0 mg/kg/injection, schedule: Q01DX009 (ip), vehicle: water) was 96 % of control and the T/C (endpoint: median survival time, dose: 32.0 mg/kg/injection, schedule: Q01DX009 (ip), vehicle: water) was 90 % of control.
For O=C(O)C1CCC(NCc2ccccc2)CC1 (centres undefined), the T/C (endpoint: mean survival time, dose: 100.0 mg/kg/injection, schedule: Q01DX009 (ip), vehicle: Klucel (hydroxypropylcellulose) (HPC)) was 100 % of control, the T/C (endpoint: mean survival time, dose: 200.0 mg/kg/injection, schedule: Q01DX009 (ip), vehicle: Klucel (hydroxypropylcellulose) (HPC)) was 100 % of control and the T/C (endpoint: mean survival time, dose: 400.0 mg/kg/injection, schedule: Q01DX009 (ip), vehicle: Klucel (hydroxypropylcellulose) (HPC)) was 111 % of control.
COC(=O)CC(NC(=O)C(F)(F)F)C(=O)OC (centres undefined) was tested, and the T/C [2] was 108 % of control, the T/C [5] was 94 % of control and the T/C [3] was 97 % of control. For the same compound, the T/C (endpoint: mean survival time, dose: 200.0 mg/kg/injection, schedule: Q01DX001 (ip), vehicle: saline) was 104 % of control, the T/C [6] was 94 % of control and the T/C [4] was 97 % of control. The T/C (endpoint: mean survival time, dose: 400.0 mg/kg/injection, schedule: Q01DX001 (ip), vehicle: saline) was 98 % of control, the T/C [7] was 100 % of control and the T/C (endpoint: mean survival time, dose: 400.0 mg/kg/injection, schedule: Q04DX003 (ip), vehicle: saline with Tween-80) was 103 % of control.
